From PubChem BioAssay AID248 (DTP/NCI, 2004)
Several values for one entry are separate records, joined by “and”; a condition that tells them apart may be missing. Equal values may be shown once. Toxic doses and inconclusive results are not listed.

System: L1210 leukemia ip in BDF1 mice, survival T/C
Assay: NCI In Vivo Anticancer Drug Screen. Data for tumor model L1210 Leukemia (intraperitoneal) in B6D2F1 (BDF1) mice
Conditions: endpoint: mean survival time, higher = longer survival
Procedure, shortened: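 Transplantable tumor model; survival measured in treated vs vehicle control mice. Value = treated/control.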

[1] = dose: 100.0 mg/kg/injection, schedule: Q04DX003 (ip), vehicle: Klucel (hydroxypropylcellulose) (HPC)
[2] = dose: 200.0 mg/kg/injection, schedule: Q04DX003 (ip), vehicle: Klucel (hydroxypropylcellulose) (HPC)
[3] = dose: 400.0 mg/kg/injection, schedule: Q04DX003 (ip), vehicle: Klucel (hydroxypropylcellulose) (HPC)
[4] = dose: 100.0 mg/kg/injection, schedule: Q01DX001 (ip), vehicle: saline
[5] = dose: 200.0 mg/kg/injection, schedule: Q01DX001 (ip), vehicle: saline
[6] = dose: 400.0 mg/kg/injection, schedule: Q01DX001 (ip), vehicle: saline
[7] = dose: 100.0 mg/kg/injection, schedule: Q01DX009 (ip), vehicle: other
[8] = dose: 200.0 mg/kg/injection, schedule: Q01DX009 (ip), vehicle: other
[9] = dose: 400.0 mg/kg/injection, schedule: Q01DX009 (ip), vehicle: other

SMILES: CN(C)CCCn1nc(-c2ccccc2)oc1=O
- T/C (dose: 75.0 mg/kg/injection, schedule: Q01DX001 (ip), vehicle: saline): 96 % of control
- T/C (dose: 150.0 mg/kg/injection, schedule: Q01DX001 (ip), vehicle: saline): 87 % of control

SMILES: C=CCc1cnc(SC)[nH]c1=O
- T/C [1]: 102 % of control
- T/C [2]: 97 % of control
- T/C [3]: 93 % of control

SMILES: CC(C)(C)C1CCCCC1O (stereo not given)
- T/C [4]: 92 % of control
- T/C [5]: 97 % of control
- T/C [6]: 92 % of control

SMILES: Cc1cccc(CCc2ccc(Br)c(C)c2C)c1C
- T/C (dose: 100.0 mg/kg/injection, schedule: Q01DX001 (ip), vehicle: carboxymethylcellulose (CMC)): 100 % of control
- T/C (dose: 200.0 mg/kg/injection, schedule: Q01DX001 (ip), vehicle: carboxymethylcellulose (CMC)): 103 % of control
- T/C (dose: 400.0 mg/kg/injection, schedule: Q01DX001 (ip), vehicle: carboxymethylcellulose (CMC)): 94 % of control

SMILES: COc1ccccc1CN1CCCN(Cc2ccccc2OC)C1c1ccccc1O
- T/C (dose: 50.0 mg/kg/injection, schedule: Q01DX001 (ip), vehicle: saline): 101 % of control
- T/C [4]: 103 % of control
- T/C [5]: 101 % of control
- T/C [6]: 97 % of control

SMILES: c1ccc(Nc2nc(Nc3ccccc3)nc(Nc3ccccc3)n2)cc1
- T/C (dose: 25.0 mg/kg/injection, schedule: Q04DX002 (ip), vehicle: Klucel (hydroxypropylcellulose) (HPC)): 92 % of control
- T/C (dose: 50.0 mg/kg/injection, schedule: Q04DX002 (ip), vehicle: Klucel (hydroxypropylcellulose) (HPC)): 92 % of control
- T/C (dose: 100.0 mg/kg/injection, schedule: Q04DX002 (ip), vehicle: Klucel (hydroxypropylcellulose) (HPC)): 88 % of control

SMILES: CCCS(=O)(=O)N(CC(=O)O)Cc1ccccc1
- T/C (dose: 50.0 mg/kg/injection, schedule: Q01DX009 (ip), vehicle: other): 110 % of control
- T/C [7]: 106 % of control and 107 % of control
- T/C (dose: 100.0 mg/kg/injection, schedule: Q04DX003 (ip), vehicle: saline with Tween-80): 101 % of control
- T/C [8]: 112 % of control and 115 % of control
- T/C (dose: 200.0 mg/kg/injection, schedule: Q04DX003 (ip), vehicle: saline with Tween-80): 104 % of control
- T/C [9]: 104 % of control
- T/C (dose: 400.0 mg/kg/injection, schedule: Q04DX003 (ip), vehicle: saline with Tween-80): 100 % of control

SMILES: COc1cc(NS(C)(=O)=O)ccc1Nc1c2ccc([N+](=O)[O-])cc2nc2c(C)c(C)ccc12
- T/C (dose: 0.48 mg/kg/injection, schedule: Q01DX009 (ip), vehicle: saline): 113 % of control
- T/C (dose: 2.7 mg/kg/injection, schedule: Q01DX009 (ip), vehicle: saline): 151 % of control
- T/C (dose: 4.1 mg/kg/injection, schedule: Q01DX009 (ip), vehicle: saline): 169 % of control
- T/C (dose: 6.25 mg/kg/injection, schedule: Q01DX009 (ip), vehicle: water): 106 % of control
- T/C (dose: 12.5 mg/kg/injection, schedule: Q01DX009 (ip), vehicle: saline): 157 % of control
- T/C (dose: 12.5 mg/kg/injection, schedule: Q01DX009 (ip), vehicle: water): 116 % of control
- T/C (dose: 22.0 mg/kg/injection, schedule: Q04DX003 (ip), vehicle: saline): 114 % of control
- T/C (dose: 25.0 mg/kg/injection, schedule: Q01DX001 (ip), vehicle: water): 122 % of control
- T/C (dose: 25.0 mg/kg/injection, schedule: Q01DX009 (ip), vehicle: saline): 102 % of control
- T/C (dose: 25.0 mg/kg/injection, schedule: Q01DX009 (ip), vehicle: water): 124 % of control
- T/C (dose: 25.0 mg/kg/injection, schedule: Q01DX009 (sc), vehicle: saline): 106 % of control
- T/C (dose: 35.0 mg/kg/injection, schedule: Q04DX003 (ip), vehicle: saline): 120 % of control
- T/C (dose: 50.0 mg/kg/injection, schedule: Q01DX009 (sc), vehicle: saline): 123 % of control
- T/C (dose: 100.0 mg/kg/injection, schedule: Q01DX009 (sc), vehicle: saline): 115 % of control
- T/C (dose: 200.0 mg/kg/injection, schedule: Q01DX009 (sc), vehicle: saline): 124 % of control
- T/C (dose: 400.0 mg/kg/injection, schedule: Q01DX009 (ip), vehicle: water): 150 % of control

SMILES: Cc1ccc(S(=O)(=O)OC2CC3CCC2C3)cc1 (stereo not given)
- T/C [7]: 107 % of control
- T/C [8]: 100 % of control
- T/C [9]: 102 % of control

SMILES: CC(=O)N(C(C)=O)C1=C(c2ccccc2)C(=O)c2ccccc21
- T/C (dose: 100.0 mg/kg/injection, schedule: Q01DX009 (ip), vehicle: Klucel (hydroxypropylcellulose) (HPC)): 98 % of control
- T/C [1]: 96 % of control
- T/C (dose: 200.0 mg/kg/injection, schedule: Q01DX009 (ip), vehicle: Klucel (hydroxypropylcellulose) (HPC)): 97 % of control
- T/C [2]: 105 % of control
- T/C (dose: 400.0 mg/kg/injection, schedule: Q01DX009 (ip), vehicle: Klucel (hydroxypropylcellulose) (HPC)): 94 % of control
- T/C [3]: 107 % of control
